Source: PMC8843100, “Development of newly synthesised quinazolinone-based CDK2 inhibitors with potent efficacy against melanoma” (Journal of Enzyme Inhibition and Medicinal Chemistry, 2022)

Legend:
HL-60(TB) = experiment: NCI-60 single dose screen, sulforhodamine B; assay type: cell-based, human; details: Leukaemia HL-60(TB); single dose 10^−5 M
Description: (§1) In this research, all of the newly synthesised quinazolinones were subjected to in vitro anticancer screening by the National Cancer Institute (USA) against 60 different human cell lines including leukaemia, non-small cell lung cancer, colon cancer, CNS cancer, melanoma, ovarian cancer, renal cancer, prostate cancer, and breast cancer. The tested compounds were evaluated at a single dose (10^−5 M). […] Regarding the benzenesulfonamide counterparts, the introduction of an electron-withdrawing group on the benzenesulfonamide moiety increased the inhibitory activity on the glioblastoma cell line SNB-75 as depicted by the chloro derivative 5c (GI% = 63.09) which was higher than that of the unsubstituted derivative 5a (GI% = 40.06) and the methyl derivative 5b (GI% = 33.03).
(§2) 1. Cytotoxicity screening against a panel of 60 human tumor cell lines
(§3) All the compounds were selected for NCI-60 Human Tumor Cell Lines Screen by the Developmental Therapeutics Program (DTP) at the National Cancer Institute (NCI), Maryland, USA. The operation of this screen utilizes 60 different human tumor cell lines, representing leukemia, non-small-cell lung cancer, colon cancer, CNS cancer, melanoma, ovarian cancer, renal cancer, prostate cancer and breas t cancer.
(§4) The compounds were supplied as dry powder and a single concentration is tested in all 60 cell lines at a single dose of 10 µM solution in dimethyl sulfoxide (DMSO) using Sulforhodamine B assay. Briefly, cells are seeded in 96 well plates at an appropriate density and incubated for 1 day. After 1 day, some of the plates are processed to determine the density time zero. To the remaining plates, compounds are added at 10 µM concentration. Plates are incubated a further 2 days, then fixed and staine d with sulphorhodamine B. Growth inhibition is calculated relative to cells without drug treatment and the time zero control. The use of a time zero control allows the determination of cell kill as well as net growth inhibition.
(§5) 2. Detection of IC50 against MDA-MB-435, SNB-75 cell lines and normal cell line WI -38.
(§6) Antiproliferative activities of 5c in melanoma cell line MDA-MB-435, glioblastoma cell line SNB-75 and normal cell line WI -38 and that of 8a in melanoma cell line MDA-MB-435 and normal cell line WI-38 were measured spectrophotometrically using in vitro MTT based toxicology assay kit (catalog no. M -5655, M-8910) (Sigma Aldrich), according to the manufacturer’s protocol. The three examined cell lin es were obtained from American Type Culture Collection (ATCC). Briefly, cells were platted (cells density 1.2 – 1.8 × 10,000 cells/well) in a volume of 100 µl complete growth medium + 100 μl of the tested compound per well in a 96-well plate for 48 h before the MTT assay. The cultures were removed from incubator into laminar flow hood then each vial of MTT [M-5655] should be reconstituted with 3 ml of medium or balanced salt solution without phenol red and serum. Reconstituted MTT was added in an amount equal to […]

IGROV1 = experiment: NCI-60 single dose screen, sulforhodamine B; assay type: cell-based, human; details: Ovarian cancer IGROV1; single dose 10^−5 M
Description: as §1, §2, §3, §4, §5, §6

MCF7 = experiment: NCI-60 single dose screen, sulforhodamine B; assay type: cell-based, human; details: Breast cancer MCF7; single dose 10^−5 M
Description: as §1, §2, §3, §4, §5, §6

MDA-MB-468 = experiment: NCI-60 single dose screen, sulforhodamine B; assay type: cell-based, human; details: Breast cancer MDA-MB-468; single dose 10^−5 M
Description: as §1, §2, §3, §4, §5, §6

SK-OV-3 = experiment: NCI-60 single dose screen, sulforhodamine B; assay type: cell-based, human; details: Ovarian cancer SK-OV-3; single dose 10^−5 M
Summary of the method: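 Sulforhodamine B staining after 2 days' exposure to compound at 10^−5 M, given one day after seeding. Values are growth inhibition relative to untreated and time-zero plates, so cell kill and net growth inhibition can be distinguished.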

[1] = test system: normal fibroblast cells WI-38; experiment: Cytotoxic activity in normal cells, MTT assay; assay type: cell-based; details: Homo sapiens, WI-38 normal cells, 48 h, read-out: IC50 (µM) ± SD WI-38
Description: as §5
as §6, with “96-well” for “96-well plate for 48 h before the MTT assay. The cultures were removed from incubator into laminar flow hood then each vial of MTT [M-5655] should be reconstituted with 3 ml of medium or balanced salt solution without phenol red and serum. Reconstituted MTT was added in an amount equal to”
(§7) salt solution without phenol red and serum.

[2] = test system: glioblastoma SNB-75 cells; experiment: Apoptosis determination, Annexin V-FITC/PI; assay type: cell-based, human; details: SNB-75, 24 h at IC50 concentration
Description: The apoptotic activity of quinazolinone 5c in melanoma MDA-MB-435 and glioblastoma SNB-75 cell lines was further studied using Annexin V-FITC assay. […]
4. Apoptosis determination
Annexin V fluorescein isothiocyanate (FITC)/PI apoptosis detection kit (BD Biosciences) was used according to the manufacturer’s instructions to measure the apoptotic activity of compound 5c. Melanoma MDA -MB-435 and glioblastoma SNB -75 cells were cultured to a monolayer then treated with the quinazolinone 5c at its IC50 concentration. The cells then were collected by trypsinisation and 0.5×10^6 cells were washed twice with PBS and stained with 5 µL Annexin V-FITC and 5 µL PI in 1Xbinding buffe r for 15 min. at room temperature in the dark.
Analyses were performed using FACS Calibur flow cytometer (BD Biosciences, San Jose, CA).

CDK2 = target: T1, CDK2 (Homo sapiens, UniProt P24941); experiment: CDK2 inhibition assay, colorimetric 96-well kit (BPS Bioscience); assay type: biochemical; details: in vitro kinase inhibition; read-out: IC50 (µM) ± SD against CDK2
T1 construct: purchased BPS Bioscience 79599
Description: It was reported that CDK2 is overexpressed in melanoma[44]^,[45].
CDK2 enzyme inhibition activity was measured for the quinazolinones 5c and 8a using a colorimetric 96-well CDK2 assay kit (BPS Bioscience) (catalog no. 79599), according to the manufacturer's protocol. All the IC50 values were calculated using GraphPad Prism 7.0 Software.
Figure S1. The pharmacokinetic profile of compound 5c using SwissADME web server.
(1 picture or pasted object on this page, not shown here)

[3] = test system: melanoma cell line MDA-MB-435; experiment: Detection of IC50, MTT assay; assay type: cell-based; details: Homo sapiens, read-out: IC50 (µM)±SD, 50% inhibition of cell viability, Melanoma MDA-MB-435, 48 h
Description: as §5
as §6, with “96-well” for “96-well plate for 48 h before the MTT assay. The cultures were removed from incubator into laminar flow hood then each vial of MTT [M-5655] should be reconstituted with 3 ml of medium or balanced salt solution without phenol red and serum. Reconstituted MTT was added in an amount equal to”
as §7

O=C(CNn1c(COc2ccccc2)nc2ccccc2c1=O)Nc1ccccc1 [Compound 4a, 2-((4-oxo-2-(phenoxymethyl)quinazolin-3(4H)-yl)amino)-N-phenylacetamide]
GI% at 10^−5 M (HL-60(TB)): – (– means GI < 10%)
GI% at 10^−5 M (IGROV1): 19.54%
GI% at 10^−5 M (MCF7): 15.7%
GI% at 10^−5 M (MDA-MB-468): – (– means GI < 10%)

COc1ccc(NC(=O)CNn2c(COc3ccccc3)nc3ccccc3c2=O)cc1 [Compound 4b, N-(4-methoxyphenyl)-2-((4-oxo-2-(phenoxymethyl)quinazolin-3(4H)-yl)amino)acetamide]
GI% at 10^−5 M (HL-60(TB)): – (– means GI < 10%)
GI% at 10^−5 M (IGROV1): 6.78%
GI% at 10^−5 M (MCF7): 13.20%
GI% at 10^−5 M (MDA-MB-468): – (– means GI < 10%)

O=C(CNn1c(COc2ccccc2)nc2ccccc2c1=O)Nc1ccc(Cl)cc1 [Compound 4c, N-(4-chlorophenyl)-2-((4-oxo-2-(phenoxymethyl)quinazolin-3(4H)-yl)amino)acetamide]
GI% at 10^−5 M (SK-OV-3): 4.95%
GI% at 10^−5 M (HL-60(TB)): – (– means GI < 10%)
GI% at 10^−5 M (IGROV1): 19.62%
GI% at 10^−5 M (MCF7): 10.05%
GI% at 10^−5 M (MDA-MB-468): 11.13%

O=c1c2ccccc2nc(COc2ccccc2)n1NS(=O)(=O)c1ccccc1 [Compound 5a, N-(4-oxo-2-(phenoxymethyl)quinazolin-3(4H)-yl)benzenesulfonamide]
GI% at 10^−5 M (HL-60(TB)): – (– means GI < 10%)
GI% at 10^−5 M (IGROV1): 16.06%
GI% at 10^−5 M (MCF7): 14.31%
GI% at 10^−5 M (MDA-MB-468): – (– means GI < 10%)

Cc1ccc(S(=O)(=O)Nn2c(COc3ccccc3)nc3ccccc3c2=O)cc1 [Compound 5b, 4-methyl-N-(4-oxo-2-(phenoxymethyl)quinazolin-3(4H)-yl)benzenesulfonamide]
GI% at 10^−5 M (SK-OV-3): −4.74%
GI% at 10^−5 M (HL-60(TB)): – (– means GI < 10%)
GI% at 10^−5 M (IGROV1): 21.58%
GI% at 10^−5 M (MCF7): 11.54%
GI% at 10^−5 M (MDA-MB-468): – (– means GI < 10%)

O=c1c2ccccc2nc(COc2ccccc2)n1NS(=O)(=O)c1ccc(Cl)cc1 [Compound 5c, 4-chloro-N-(4-oxo-2-(phenoxymethyl)quinazolin-3(4H)-yl)benzenesulfonamide]
IC50 [1]: 62.5 ± 3.5 µM
% Necrosis [2]: 8.61%
%Apoptosis Early [2]: 2.65%
%Apoptosis Late [2]: 32.96%
%Apoptosis Total [2]: 44.22%
IC50 (CDK2): 0.63 ± 0.022 µM
IC50 [3]: 3.03 ± 0.38 µM
GI% at 10^−5 M (HL-60(TB)): 24.32%
GI% at 10^−5 M (IGROV1): 38.26%
GI% at 10^−5 M (MCF7): 58.11%
GI% at 10^−5 M (MDA-MB-468): 59.61%

COc1cc(C=Nn2c(COc3ccccc3)nc3ccccc3c2=O)ccc1O [Compound 6a, 3-((4-hydroxy-3-methoxybenzylidene)amino)-2-(phenoxymethyl)quinazolin-4(3H)-one]
GI% at 10^−5 M (HL-60(TB)): – (– means GI < 10%)
GI% at 10^−5 M (IGROV1): – (– means GI < 10%)
GI% at 10^−5 M (MCF7): 22.94%
GI% at 10^−5 M (MDA-MB-468): – (– means GI < 10%)

O=c1c2ccccc2nc(COc2ccccc2)n1N=CC=Cc1ccccc1 [Compound 6b, 2-(phenoxymethyl)-3-((3-phenylallylidene)amino)quinazolin-4(3H)-one]
GI% at 10^−5 M (HL-60(TB)): – (– means GI < 10%)
GI% at 10^−5 M (IGROV1): – (– means GI < 10%)
GI% at 10^−5 M (MCF7): 16.22%
GI% at 10^−5 M (MDA-MB-468): 10.89%

CN1CCN(CC(=O)Nn2c(COc3ccccc3)nc3ccccc3c2=O)CC1 [Compound 8a, 2–(4-methylpiperazin-1-yl)-N-(4-oxo-2-(phenoxymethyl)quinazolin-3(4H)-yl)acetamide]
IC50 [1]: 37.3 ± 2.1 µM
GI% at 10^−5 M (SK-OV-3): 22.99%
IC50 (CDK2): 1.74 ± 0.062 µM
IC50 [3]: 6.22 ± 0.53 µM
GI% at 10^−5 M (HL-60(TB)): 19.74%
GI% at 10^−5 M (IGROV1): 26.87%
GI% at 10^−5 M (MCF7): 57.64%
GI% at 10^−5 M (MDA-MB-468): 49.06%

O=C(CN1CCN(c2ccccc2)CC1)Nn1c(COc2ccccc2)nc2ccccc2c1=O [Compound 8b, N-(4-oxo-2-(phenoxymethyl)quinazolin-3(4H)-yl)-2–(4-phenylpiperazin-1-yl)acetamid]
GI% at 10^−5 M (HL-60(TB)): – (– means GI < 10%)
GI% at 10^−5 M (IGROV1): – (– means GI < 10%)
GI% at 10^−5 M (MCF7): – (– means GI < 10%)
GI% at 10^−5 M (MDA-MB-468): – (– means GI < 10%)

COc1ccc(N2CCN(CC(=O)Nn3c(COc4ccccc4)nc4ccccc4c3=O)CC2)cc1 [Compound 8c, 2–(4-(4-methoxyphenyl)piperazin-1-yl)-N-(4-oxo-2-(phenoxymethyl)quinazolin-3(4H)-yl)acetamide]
GI% at 10^−5 M (HL-60(TB)): – (– means GI < 10%)
GI% at 10^−5 M (IGROV1): – (– means GI < 10%)
GI% at 10^−5 M (MCF7): – (– means GI < 10%)
GI% at 10^−5 M (MDA-MB-468): – (– means GI < 10%)
